Results from the supplement of paper PMC10307832.

Key:
Assay in all cases: relative viability (nuclei count vs DMSO), 5 days (fraction); higher = more cells survive
CX-5461 + Dasatinib = compound: Cc1cnc(CNC(=O)c2c(=O)c3ccc(N4CCCN(C)CC4)nc3n3c2sc2ccccc23)cn1 [CX-5461] + Cc1nc(Nc2ncc(C(=O)Nc3c(C)cccc3Cl)s2)cc(N2CCN(CCO)CC2)n1 [Dasatinib] (partner 0.075 µM)
Method in brief: (§1)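 For relative viability, nuclei counts in treated wells were divided by those in vehicle wells. Lung cancer cell lines had been pin-tool dosed in 1536-well plates the day after seeding and cultured for 5 days, then fixed and stained in one step (final 0.05% Triton X-100, 1% formaldehyde, 1 ug/ml Hoechst) and imaged at 4×. Doses were one drug alone or a fixed anchor-drug dose plus five library-drug doses (not always all listed) in √10 steps, and values are duplicate-plate medians.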

IMD-0354 + Trametinib = compound: O=C(Nc1cc(C(F)(F)F)cc(C(F)(F)F)c1)c1cc(Cl)ccc1O [IMD-0354] + CC(=O)Nc1cccc(-n2c(=O)n(C3CC3)c(=O)c3c(Nc4ccc(I)cc4F)n(C)c(=O)c(C)c32)c1 [Trametinib] (partner 0.02 µM)
Method in brief: as §1

CX-5461 + Bortezomib = compound: Cc1cnc(CNC(=O)c2c(=O)c3ccc(N4CCCN(C)CC4)nc3n3c2sc2ccccc23)cn1 [CX-5461] + CC(C)C[C@H](NC(=O)[C@H](Cc1ccccc1)NC(=O)c1cnccn1)B(O)O [Bortezomib] (partner 0.002 µM)
Method in brief: as §1

IMD-0354 + Foretinib = compound: O=C(Nc1cc(C(F)(F)F)cc(C(F)(F)F)c1)c1cc(Cl)ccc1O [IMD-0354] + COc1cc2c(Oc3ccc(NC(=O)C4(C(=O)Nc5ccc(F)cc5)CC4)cc3F)ccnc2cc1OCCCN1CCOCC1 [Foretinib] (partner 0.25 µM)
Method in brief: as §1

Cell Line | relative viability (CX-5461 + Dasatinib; first compound 0.01 µM) | relative viability (CX-5461 + Dasatinib; first compound 0.03162 µM) | relative viability (CX-5461 + Dasatinib; first compound 0.1 µM) | relative viability (CX-5461 + Dasatinib; first compound 0.3162 µM) | relative viability (CX-5461 + Dasatinib; first compound 1 µM) | relative viability (IMD-0354 + Trametinib; first compound 0.04 µM) | relative viability (IMD-0354 + Trametinib; first compound 0.1265 µM) | relative viability (IMD-0354 + Trametinib; first compound 0.4 µM) | relative viability (IMD-0354 + Trametinib; first compound 1.265 µM) | relative viability (IMD-0354 + Trametinib; first compound 4 µM) | relative viability (CX-5461 + Bortezomib; first compound 0.01 µM) | relative viability (CX-5461 + Bortezomib; first compound 0.03162 µM) | relative viability (CX-5461 + Bortezomib; first compound 0.1 µM) | relative viability (CX-5461 + Bortezomib; first compound 0.3162 µM) | relative viability (CX-5461 + Bortezomib; first compound 1 µM) | relative viability (IMD-0354 + Foretinib; first compound 0.04 µM) | relative viability (IMD-0354 + Foretinib; first compound 0.1265 µM) | relative viability (IMD-0354 + Foretinib; first compound 0.4 µM) | relative viability (IMD-0354 + Foretinib; first compound 1.265 µM) | relative viability (IMD-0354 + Foretinib; first compound 4 µM)
NCI-H1975 | 0.367 | 0.388 | 0.302 | 0.441 | 0.2 | 0.4 | 0.379 | 0.271 | 0.159 | 0.138 | 0.361 | 0.357 | 0.357 | 0.358 | 0.154 | 1.01 | 1.03 | 0.483 | 0.18 | 0.16
CAL-12T | 0.521 | 0.356 | 0.329 | 0.39 | 0.205 | 0.333 | 0.308 | 0.403 | 0.191 | 0.211 | 0.941 | 0.92 | 0.909 | 1.17 | 0.831 | 1.25 | 0.844 | 0.638 | 0.486 | 0.154
NCI-H1623 | 0.524 | 0.473 | 0.521 | 0.568 | 0.534 | – | – | – | – | – | – | – | – | – | – | 0.896 | 0.908 | 0.764 | 0.687 | 0.457
HCC-44 | – | – | – | – | – | 1.09 | 1.14 | 0.973 | 1.04 | 0.319 | 0.898 | 0.973 | 0.844 | 0.838 | 0.807 | – | – | – | – | –
EKVX | 0.55 | 0.522 | 0.481 | 0.554 | 0.477 | 0.399 | 0.3 | – | 0.339 | 0.175 | 1.29 | 1.04 | 1.01 | – | 0.838 | 0.974 | 0.975 | 0.714 | 0.0943 | 0.13
NCI-H1651 | 0.378 | 0.254 | – | 0.178 | 0.112 | 0.803 | 0.729 | 0.729 | 0.877 | 0.238 | 0.899 | 0.896 | 0.816 | 0.969 | 0.404 | 0.816 | 0.716 | 0.433 | 0.312 | 0.0982
NCI-H2170 | 0.602 | 0.552 | 0.701 | 0.619 | 0.436 | 1.03 | 0.909 | 0.562 | 0.897 | 0.481 | – | – | – | – | – | 1.05 | 1.03 | 1.01 | 0.841 | 0.268
NCI-H1703 | – | – | – | – | – | – | – | – | – | – | 0.31 | 0.378 | 0.318 | 0.337 | 0.154 | 0.407 | 0.347 | 0.368 | 0.299 | 0.16
Calu-6 | – | – | – | – | – | – | – | – | – | – | 1.16 | 1.06 | 0.907 | 1.12 | 0.382 | 0.941 | 0.829 | 0.579 | 0.172 | 0.101
EBC-1 | – | – | – | – | – | – | – | – | – | – | 0.591 | 0.619 | 0.466 | 0.49 | 0.423 | 0.0859 | 0.103 | 0.104 | 0.105 | 0.0891
A-427 | 0.811 | 0.8 | 0.758 | – | 0.539 | 0.878 | 0.73 | 0.636 | 0.176 | 0.162 | 0.999 | 1.04 | 0.98 | – | 0.912 | 0.972 | 1.08 | 0.594 | 0.655 | 0.168
NCI-H2347 | 0.336 | 0.295 | 0.4 | 0.333 | 0.328 | 0.279 | 0.296 | 0.227 | 0.27 | 0.207 | 1.06 | 1.21 | 0.836 | 0.854 | 0.941 | 1.11 | 0.842 | 0.523 | 0.599 | 0.513
NCI-H1355 | 0.81 | 0.792 | 0.665 | 0.449 | 0.389 | 0.446 | 0.398 | 0.402 | 0.331 | 0.244 | 1.2 | 1.19 | 1.12 | 1.28 | 0.877 | 1.11 | 0.943 | 0.646 | 0.908 | 0.298
SK-MES-1 | 0.339 | 0.387 | 0.397 | 0.344 | 0.198 | 0.658 | 0.612 | 0.49 | 0.401 | 0.203 | – | – | – | – | – | 0.876 | 0.66 | 0.831 | 0.782 | 0.324
PC-3 [JPC-3] | 0.967 | 1.09 | 1.01 | 1.04 | 0.972 | 0.825 | 0.676 | 0.65 | 0.399 | 0.267 | 0.745 | 0.83 | 0.838 | 0.884 | 0.825 | 1.07 | 1 | 0.61 | 0.376 | 0.272
NCI-H2228 | 0.399 | 0.465 | 0.28 | 0.309 | 0.0755 | 0.472 | 0.454 | 0.43 | 0.171 | 0.232 | 0.934 | 0.797 | 0.455 | 0.819 | 0.126 | 1.05 | 0.921 | 0.416 | 0.515 | 0.17
HOP-62 | 0.724 | 0.661 | 0.704 | 0.675 | 0.489 | 0.405 | 0.394 | 0.403 | 0.42 | 0.17 | 0.726 | 0.84 | 0.896 | 0.909 | 0.424 | 1.13 | 1.03 | 0.42 | 0.449 | 0.118
HARA | 0.308 | 0.246 | 0.213 | – | 0.213 | 0.772 | 0.517 | 0.632 | 0.225 | 0.262 | 1.01 | 1.28 | 1.13 | 1.06 | 0.809 | 1.07 | 0.866 | 0.568 | 0.159 | 0.125
NCI-H838 | 0.283 | 0.292 | 0.38 | 0.241 | 0.243 | 0.518 | 0.466 | 0.236 | 0.204 | 0.166 | 0.902 | 0.85 | 0.979 | 0.29 | 0.646 | 1.08 | 0.925 | 0.463 | 0.579 | 0.403
